Results taken from US8648074B2, “Substituted octahydropyrrolo[1,2-a]pyrazine sulfonamides as calcium channel blockers” (AbbVie Inc., priority 2011, dated 2014).

These molecules were tested on Chronic constriction injury (CCl), a model of neuropathic pain (assay: In vivo assessment of analgesic effect against neuropathic pain (Bennett model, chronic constriction injury; tactile allodynia by von Frey filaments)). Conditions: Rattus norvegicus, po, 1 h; male Sprague Dawley rats, CCI; 10 mg/kg orally; mechanical allodynia 60 minutes following administration; percentage of maximum possible effect from log g PWT; read-out: % MPE.
Procedure: Animals were prepared for testing, by use of a surgical procedure that induces neuropathic pain in one paw. IACUC guidelines for rodent survival surgery were followed. All surgical procedures were conducted on a clean, uncluttered surgical station. The area was wiped with a 70% ethanol solution before and after use. All instruments were sterilized by either autoclave or chemical sterilant (such as 2% glutaraldehyde>10 hours). Surgeons wore sterile gloves (for the initial procedure), clean lab coat or scrubs, hairnet or cap, and a half-mask respirator (when not working under a hood). Surgeons thoroughly washed their hands prior to donning sterile gloves. Gloves were disinfected in-between animals by cleansing with povidone iodine, chlorhexidine or 70% alcohol for at least 30 seconds. If multiple surgeries were performed, the instruments were cleaned and sterilized between procedures with hot glass beads (>10 seconds). To prevent thermal or chemical burns, the instruments were cooled by rinsing in sterile saline before use. Male, Sprague Dawley® rats, 175-200 g were used for surgeries. To minimize post-operative dehydration/maintain blood volume during the surgery, warmed sterile saline or Lactate Ringers solution at 10-15 mL/kg was administered subcutaneously immediately before or after surgery. This facilitated better renal function and presumably anesthesia product excretion post surgery. For all surgical procedures, anesthesia was induced with 4-5% isoflurane. Anesthesia was maintained during surgery with 1-3% isoflurane. Following induction, the surgical site was carefully shaved and the exposed area was aseptically prepared with povidone-iodine scrub solution and 70% ethanol 2-3 times. Chronic constriction injury (CCl), a model of neuropathic pain, was produced by following the method of Bennett and Xie (Bennett, G, et al. Pain, 1988, 33, 87-107). After site sterilization and anesthetic procedures outline above were completed, a 1.5 cm incision was made at the mid-thigh level to expose the biceps femoris and gluteous superficialis (right side), which were then separated by blunt dissection. The common sciatic nerve was exposed, isolated, and loosely ligated by four 5-0 chromic gut ligatures with <1 mm spacing between each. The surgical site was closed in layers—muscle was closed with 6.0 absorbable sutures, and the skin closed with wound clips. Animals were allowed to recover on a warming plate and were returned to their home cages when fully ambulatory. Animals were not be used for testing until at least 10 days following surgery. To measure mechanical sensitivity, tactile allodynia was measured using calibrated von Frey filaments (Stoelting, Wood Dale, Ill.) as described by Chaplan et al. (Chaplan S., et al. J of Neuroscience Methods 1994, 53, 55-63). Filament strengths used were: 0.4, 0.6, 1.0, 2, 4, 6, 8, and 15 g. Rats were placed into inverted individual plastic containers (20×12.5×20 cm) on top of a suspended wire mesh grid, and acclimated to the test chambers for at least 20 minutes. Filaments were applied perpendicular to the mid-plantar paw surface with enough force to cause slight buckling and held in place for 6-8 seconds. Positive responses included an abrupt withdrawal of the paw from the stimulus or flinching behavior immediately following removal of the stimulus. The maximum force applied was 15 g. The 50% paw withdrawal threshold (PWT) was calculated in grams (g) using the up-down method of Dixon (Dixon W. Ann Rev Pharmacol Toxicol 1980, 20, 441-462). […] All compounds were orally administered in at a dose of 10 mg/kg in 10% dimethyl sulfoxide/polyethylene glycol at a volume of 2.0 mL/kg, and mechanical allodynia was determined 60 minutes following compound administration. […]
`O=S(=O)(c1cccc(C(F)(F)F)c1)N1CCN2C[C@H](Oc3cnc(C4CC4)cn3)C[C@H]2C1` [Example 21, (7R,8aS)-7-[(5-cyclopropylpyrazin-2-yl)oxy]-2-{[3-(trifluoromethyl)phenyl]-sulfonyl}octahydropyrrolo[1,2-a]pyrazine] was tested, and the inhibition in vivo at 10 mg/kg was 43%. `O=S(=O)(c1ccc(C(F)(F)F)cc1)N1CCN2C[C@H](Oc3cnc(C4CC4)cn3)C[C@H]2C1` [Example 25, (7R,8aS)-7-[(5-cyclopropylpyrazin-2-yl)oxy]-2-{[4-(trifluoromethyl)-phenyl]sulfonyl}octahydropyrrolo[1,2-a]pyrazine] gave an inhibition in vivo at 10 mg/kg of 42%. For `O=S(=O)(c1cccc(C(F)(F)F)c1)N1CCN2C[C@H](Oc3ccc(C4CC4)nn3)C[C@H]2C1` [Example 44, (7R,8aS)-7-[(6-cyclopropylpyridazin-3-yl)oxy]-2-{[3-(trifluoromethyl)-phenyl]sulfonyl}octahydropyrrolo[1,2-a]pyrazine], the inhibition in vivo at 10 mg/kg was 40%. `O=S(=O)(c1cccc(C(F)(F)F)c1)N1CCN2C[C@@H](Oc3cnc(C4CC4)cn3)C[C@H]2C1` [Example 49, (7S,8aS)-7-[(5-cyclopropylpyrazin-2-yl)oxy]-2-{[3-(trifluoromethyl)-phenyl]sulfonyl}octahydropyrrolo[1,2-a]pyrazine] showed an inhibition in vivo at 10 mg/kg of 19%. `O=S(=O)(c1ccc(C(F)(F)F)cc1)N1CCN2C[C@@H](Oc3cnc(C4CC4)cn3)C[C@H]2C1` [Example 50, (7S,8aS)-7-[(5-cyclopropylpyrazin-2-yl)oxy]-2-{[4-(trifluoromethyl)phenyl]-sulfonyl}octahydropyrrolo[1,2-a]pyrazine] showed an inhibition in vivo at 10 mg/kg of 25%. For `O=S(=O)(c1cc(F)cc(C(F)(F)F)c1)N1CCN2C[C@H](Oc3cnc(C4CC4)cn3)C[C@H]2C1` [Example 51, (7R,8aS)-7-[(5-cyclopropylpyrazin-2-yl)oxy]-2-{[3-fluoro-5-(trifluoromethyl)phenyl]sulfonyl}octahydropyrrolo[1,2-a]pyrazine], the inhibition in vivo at 10 mg/kg was 32%. For `O=S(=O)(c1ccc(F)c(C(F)(F)F)c1)N1CCN2C[C@H](Oc3cnc(C4CC4)cn3)C[C@H]2C1` [Example 52, (7R,8aS)-7-[(5-cyclopropylpyrazin-2-yl)oxy]-2-{[4-fluoro-3-(trifluoromethyl)phenyl]sulfonyl}octahydropyrrolo[1,2-a]pyrazine], the inhibition in vivo at 10 mg/kg was 38%. Work on `O=S(=O)(c1ccc(C(F)(F)F)cc1)N1CCN2C[C@@H](Oc3cnc(C4CC4)cn3)C[C@@H]2C1` [Example 54, (7S,8aR)-7-[(5-cyclopropylpyrazin-2-yl)oxy]-2-{[4-(trifluoromethyl)phenyl]-sulfonyl}octahydropyrrolo[1,2-a]pyrazine] yielded an inhibition in vivo at 10 mg/kg of 34%. `O=S(=O)(c1ccc(F)cc1F)N1CCN2C[C@H](Oc3cnc(C4CC4)cn3)C[C@H]2C1` [Example 62, (7R,8aS)-7-[(5-cyclopropylpyrazin-2-yl)oxy]-2-[(2,4-difluorophenyl)-sulfonyl]octahydropyrrolo[1,2-a]pyrazine] gave an inhibition in vivo at 10 mg/kg of 29%. `N#Cc1cc(C(F)(F)F)cc(S(=O)(=O)N2CCN3C[C@H](Oc4cnc(C5CC5)cn4)C[C@H]3C2)c1` [Example 64, 3-{[(7R,8aS)-7-[(5-cyclopropylpyrazin-2-yl)oxy]hexahydropyrrolo[1,2-a]-pyrazin-2(1H)-yl]sulfonyl}-5-(trifluoromethyl)benzonitrile] gave an inhibition in vivo at 10 mg/kg of 37%. `O=S(=O)(c1ccc(C(F)(F)F)cn1)N1CCN2C[C@H](Oc3cnc(C4CC4)cn3)C[C@H]2C1` [Example 67, (7R,8aS)-7-[(5-cyclopropylpyrazin-2-yl)oxy]-2-{[5-(trifluoromethyl)pyridin-2-yl]sulfonyl}octahydropyrrolo[1,2-a]pyrazine] showed an inhibition in vivo at 10 mg/kg of 5%. `N#Cc1ccc(O[C@@H]2C[C@H]3CN(S(=O)(=O)c4cccc(C(F)(F)F)c4)CCN3C2)cn1` [Example 86, 5-{[(7R,8aS)-2-{[3-(trifluoromethyl)phenyl]sulfonyl}octahydropyrrolo[1,2-a]pyrazin-7-yl]oxy}pyridine-2-carbonitrile] gave an inhibition in vivo at 10 mg/kg of 0%.
